Data set [1] has as its system Hepatotoxicity. The data set can be described thus: Literature-mined compound from Fourches et al multi-species drug-induced liver injury (DILI) dataset, effect in non-rodents.
For data set [2], the system named is Hepatotoxicity. The data set can be described thus: Literature-mined compound from Fourches et al multi-species drug-induced liver injury (DILI) dataset, effect in rodents. Conditions: rodentia.
Data set [3] relates to Hepatotoxicity. The data set can be described thus: Literature-mined compound from Fourches et al multi-species drug-induced liver injury (DILI) dataset, effect in humans. Particulars: human.

Hepatotoxicity data for 25 compounds are collected here from ChEMBL document CHEMBL1697731, “Cheminformatics analysis of assertions mined from literature that describe drug-induced liver injury in different species” (Chem Res Toxicol, 2010).

On to `CNC(=O)Oc1ccc2c(c1)[C@]1(C)CCN(C)[C@@H]1N2C` [PHYSOSTIGMINE], for which the Hepatotoxicity entry was “no drug-induced liver injury reported” with Hepatotoxicity [1], “drug-induced liver injury reported” with Hepatotoxicity [2] and “no drug-induced liver injury reported” in the data set on Hepatotoxicity [3].
As for `CCCCNc1ccc(C(=O)OCCN(C)C)cc1` [TETRACAINE], the Hepatotoxicity result in the data set with Hepatotoxicity [1] was “no drug-induced liver injury reported”; with Hepatotoxicity [2], “drug-induced liver injury reported”; in the data set with Hepatotoxicity [3] it was “no drug-induced liver injury reported”.
With `CCN(CC)CCOc1ccc(C(=C(Cl)c2ccccc2)c2ccccc2)cc1` (stereo in doubt; form 1) [CLOMIPHENE], the Hepatotoxicity result in the data set with Hepatotoxicity [1] is given as “no drug-induced liver injury reported”; with Hepatotoxicity [2] it was “no drug-induced liver injury reported”; in the data set with Hepatotoxicity [3], “drug-induced liver injury reported”.
On to `COc1cc(NS(C)(=O)=O)ccc1Nc1c2ccccc2nc2ccccc12` [AMSACRINE], for which the Hepatotoxicity entry in the data set with Hepatotoxicity [1] is “no drug-induced liver injury reported”; with Hepatotoxicity [2] it was “no drug-induced liver injury reported”; in the data set with Hepatotoxicity [3], “drug-induced liver injury reported”.
Consider `Nc1nc2ccc(OC(F)(F)F)cc2s1` [RILUZOLE], for which the Hepatotoxicity entry in the data set with Hepatotoxicity [1] is “no drug-induced liver injury reported”; with Hepatotoxicity [2] it was “no drug-induced liver injury reported”; with Hepatotoxicity [3] it was “drug-induced liver injury reported”.
Take `COc1ccc(C(=O)Nc2ccccc2CCC2CCCCN2C)cc1` (stereo not given) [ENCAINIDE]: the Hepatotoxicity entry in the data set on Hepatotoxicity [1] is on record as “no drug-induced liver injury reported”; with Hepatotoxicity [2], “no drug-induced liver injury reported”; with Hepatotoxicity [3], “drug-induced liver injury reported”.
In the case of `CCN1CCCC1CNC(=O)c1cc(S(N)(=O)=O)ccc1OC` (stereo not given) [SULPIRIDE], the Hepatotoxicity result in the data set with Hepatotoxicity [1] is listed as “drug-induced liver injury reported”; in the data set with Hepatotoxicity [2], “no drug-induced liver injury reported”; in the data set with Hepatotoxicity [3] it was “drug-induced liver injury reported”.
With `O=c1[nH]c(=O)n(C2CCCO2)cc1F` (stereo not given) [TEGAFUR], the Hepatotoxicity entry in the data set on Hepatotoxicity [1] is “no drug-induced liver injury reported”; in the data set with Hepatotoxicity [2], “no drug-induced liver injury reported”; in the data set with Hepatotoxicity [3], “drug-induced liver injury reported”.
Take `Cn1cc([S+](C)[O-])c(=O)c2ccc(F)cc21` (stereo not given) [FLOSEQUINAN]: the Hepatotoxicity entry in the data set on Hepatotoxicity [1] is “no drug-induced liver injury reported”; with Hepatotoxicity [2], “no drug-induced liver injury reported”; in the data set on Hepatotoxicity [3] it was “drug-induced liver injury reported”.
In the case of `Nc1ccc(S(N)(=O)=O)cc1` [SULFANILAMIDE], the Hepatotoxicity result in the data set on Hepatotoxicity [1] (Liver) is given as “no drug-induced liver injury reported”; in the data set with Hepatotoxicity [2] (Liver) it was “no drug-induced liver injury reported”; in the data set on Hepatotoxicity [3] (Liver) it was “drug-induced liver injury reported”.
As for `CC(=O)N(CC(O)CO)c1c(I)c(C(=O)NCC(O)CO)c(I)c(C(=O)NCC(O)CO)c1I` (stereo not given) [IOHEXOL], the values for the Hepatotoxicity entry in the data set with Hepatotoxicity [1], with Hepatotoxicity [2] and in the data set with Hepatotoxicity [3] were “drug-induced liver injury reported”, “no drug-induced liver injury reported” and “no drug-induced liver injury reported”, respectively.
As for `Clc1ccc2nsnc2c1NC1=NCCN1` [TIZANIDINE], the Hepatotoxicity result with Hepatotoxicity [1] (Liver) is recorded as “no drug-induced liver injury reported”; in the data set on Hepatotoxicity [2] (Liver), “no drug-induced liver injury reported”; in the data set on Hepatotoxicity [3] (Liver), “drug-induced liver injury reported”.
For `CCn1cc(C(=O)O)c(=O)c2ccc(C)nc21` [NALIDIXIC ACID], the Hepatotoxicity entry in the data set on Hepatotoxicity [1] is reported as “no drug-induced liver injury reported”; in the data set with Hepatotoxicity [2], “drug-induced liver injury reported”; in the data set on Hepatotoxicity [3] it was “drug-induced liver injury reported”.
For `Cc1nc2n(c(=O)c1CCN1CCC(c3noc4cc(F)ccc34)CC1)CCCC2` [RISPERIDONE], the Hepatotoxicity result in the data set with Hepatotoxicity [1] is “no drug-induced liver injury reported”; with Hepatotoxicity [2] it was “no drug-induced liver injury reported”; in the data set on Hepatotoxicity [3], “drug-induced liver injury reported”.
With `CC(C)(C)NCC(O)c1cc(O)cc(O)c1` (stereo not given) [TERBUTALINE], the Hepatotoxicity entry is recorded as “drug-induced liver injury reported” with Hepatotoxicity [1], “drug-induced liver injury reported” in the data set on Hepatotoxicity [2] and “no drug-induced liver injury reported” with Hepatotoxicity [3].
With `O=P1(NCCCl)OCCCN1CCCl` (stereo not given) [IFOSFAMIDE], the Hepatotoxicity entry in the data set with Hepatotoxicity [1] is given as “no drug-induced liver injury reported”; in the data set with Hepatotoxicity [2], “no drug-induced liver injury reported”; in the data set on Hepatotoxicity [3] it was “drug-induced liver injury reported”.
With `COc1cc(CNC(=O)CCCC/C=C/C(C)C)ccc1O` [CAPSAICIN], the Hepatotoxicity entry is reported as “no drug-induced liver injury reported” in the data set on Hepatotoxicity [1], “drug-induced liver injury reported” in the data set on Hepatotoxicity [2] and “drug-induced liver injury reported” in the data set on Hepatotoxicity [3].
Take `CCN(CC)CCNC(=O)c1cc(Cl)c(N)cc1OC` [METOCLOPRAMIDE]: the figures for the Hepatotoxicity result in the data set on Hepatotoxicity [1], in the data set on Hepatotoxicity [2] and in the data set with Hepatotoxicity [3] were “no drug-induced liver injury reported”, “drug-induced liver injury reported” and “drug-induced liver injury reported”, respectively.
Take `CC1=C(C(=O)O)N2C(=O)[C@@H](NC(=O)[C@H](N)c3ccc(O)cc3)[C@H]2SC1` [CEFADROXIL]: the results for the Hepatotoxicity entry in the data set with Hepatotoxicity [1], in the data set on Hepatotoxicity [2] and in the data set on Hepatotoxicity [3] were “no drug-induced liver injury reported”, “no drug-induced liver injury reported” and “drug-induced liver injury reported”, respectively.
Consider `COC(=O)C(c1ccccc1)C1CCCCN1` (stereo not given) [METHYLPHENIDATE], for which the Hepatotoxicity result in the data set with Hepatotoxicity [1] is “no drug-induced liver injury reported”; in the data set with Hepatotoxicity [2] it was “drug-induced liver injury reported”; with Hepatotoxicity [3] it was “drug-induced liver injury reported”.
Regarding `COCc1c(C(C)C)nc(C(C)C)c(/C=C/[C@@H](O)C[C@@H](O)CC(=O)[O-])c1-c1ccc(F)cc1.[Na+]` [CERIVASTATIN SODIUM], the Hepatotoxicity result in the data set on Hepatotoxicity [1] is “drug-induced liver injury reported”; in the data set with Hepatotoxicity [2], “drug-induced liver injury reported”; with Hepatotoxicity [3], “no drug-induced liver injury reported”.
Regarding `CCC1(c2ccccc2)NC(=O)N(C)C1=O` (stereo not given) [MEPHENYTOIN], the Hepatotoxicity result in the data set with Hepatotoxicity [1] was “no drug-induced liver injury reported”; with Hepatotoxicity [2] it was “drug-induced liver injury reported”; in the data set with Hepatotoxicity [3], “no drug-induced liver injury reported”.
As for `CCCCC1C(=O)N(c2ccccc2)N(c2ccc(O)cc2)C1=O` (stereo not given) [OXYPHENBUTAZONE ANHYDROUS], the values for the Hepatotoxicity entry in the data set on Hepatotoxicity [1], with Hepatotoxicity [2] and in the data set on Hepatotoxicity [3] were “no drug-induced liver injury reported”, “drug-induced liver injury reported” and “no drug-induced liver injury reported”, respectively.
`O=C(O)c1ccccc1Nc1cccc(C(F)(F)F)c1` [FLUFENAMIC ACID]: the Hepatotoxicity entry in the data set on Hepatotoxicity [1] is recorded as “no drug-induced liver injury reported”; in the data set on Hepatotoxicity [2], “drug-induced liver injury reported”; in the data set with Hepatotoxicity [3] it was “drug-induced liver injury reported”.
On to `CC(N/C(=N\C#N)Nc1ccncc1)C(C)(C)C` (stereo not given) [PINACIDIL ANHYDROUS], for which the Hepatotoxicity result with Hepatotoxicity [1] is reported as “no drug-induced liver injury reported”; with Hepatotoxicity [2] it was “drug-induced liver injury reported”; in the data set with Hepatotoxicity [3] it was “drug-induced liver injury reported”.
